Data on four compounds can be found in patent US20120295893A1, “COMPOSITIONS AND METHODS OF COUNTERACTING RESIDUAL SEDATIVE EFFECTS OF SLEEP/ HYPNOTIC DRUGS” (COERULEUS LTD., priority 2009, published 2012).

A short description of series [1]: Clinical study: vital signs and safety assessments. Conditions: Baseline sleep (after hypnotic, before oral spray); for Pulse rate: 10 subjects per hypnotic.
Series [2] deals with sleep/hypnotic effect of zolpidem or brotizolam. The series can be described thus: Clinical study: immediate Word Recall Test (iWRT). Conditions: Baseline sleep (after hypnotic, before oral spray).
Series [3] has the same test system. The series is described as follows: Clinical study: digit symbol substitution test (DSST). Conditions: Baseline sleep (after hypnotic, before oral spray).
For series [4] the test system is unchanged. The series can be described thus: Clinical study: Visual Analogue Scale (sleepiness/vigilance, ability to focus, effectiveness). Conditions: Baseline sleep (after hypnotic, before oral spray).
The test system is the same in series [5]. The series can be described thus: Clinical study: Profile Of Mood States (POMS) Brief form. Conditions: Baseline sleep (after hypnotic, before oral spray).
Series [6] deals with Sprague-Dawley™ (SD) rats. The series is described as follows: Preliminary phase: induction of 'Sleep' by IV diazepam (dose finding). Conditions: for mortality after diazepam injection: FDC = Found Dead in the Cage.
In series [7] the test system is diazepam-induced sedative-hypnotic effects. The series can be described thus: Main phase: Sleeping Time (regaining of Righting Reflex) after diazepam induction. In kind it is in vivo, rat. Particulars: IV, two administrations at 2 min interval after diazepam. As to the method: (§1) The main phase consisted of 4 groups of n=8 male and female SD rats/group. Induction of sedative-hypnotic effects, as measured by Sleeping Time and locomotor activity, was carried out by two intravenous injections of diazepam at an interval of approximately 2 minutes. The Test, Reference and Control Items were administered twice at interval of 2 minutes as well, about 5 minutes after the second dose of diazepam. Both Test Items FLUMUP-F22 (F22, Table 26 below) and FLUMUP-F26 (F26, Table 26 below) were administered by the sublingual route at a constant dose volume of 0.1 ml/animal per administration. An additional group was administered with FLUMUP Placebo under identical experimental conditions and served as a Control group. A fourth group was subjected to IV injection of the Reference Item under identical experimental conditions. Animals were placed in the activity cage immediately following arousal from ‘Sleep’ or 10 minutes post the second dose of the respective treatment if arousal was not evident.
Males were injected with an initial dose level of 15 mg/kg and approximately 2 minutes later an addition of 5 mg/kg was administered. […]
Sleeping time was determined for all animals.
Evaluation was based on the relative recorded changes in the measured Sleeping Time and locomotor activity, obtained from the Test & Reference Items-treated animals vs. those of the Control Item group. […]

Series [8] shares this test system. The series can be described thus: Main phase: locomotor activity in activity cage after diazepam induction. It is filed as in vivo, rat. As to the method: as §1
Males were injected with an initial dose level of 15 mg/kg and approximately 2 minutes later an addition of 5 mg/kg was administered. Females were injected with an initial dose level of 20 mg/kg and approximately 2 minutes later an addition of 5 mg/kg.
(i) The Test and Control Items were administered by the sublingual route twice at an interval of approximately 2 minutes about 5 minutes post the second injection of diazepam. (ii) The Reference Item flumazenil USP was injected twice intravenously at an interval of approximately 2 minutes about 5 minutes post the second injection of diazepam. The Test, Reference and Control Items were administered at a constant dose volume of 0.1 ml/animal per administration over approximately 15 seconds.
Each rat was placed in the center of a special designed commercial activity cage, measuring 40×40×46 cm (TruScan Photo Beam Activity System-Coulbourn Instruments, Allentown, Pa., USA) for a duration of 15 minutes.
Evaluation was based on the relative recorded changes in the measured Sleeping Time and locomotor activity, obtained from the Test & Reference Items-treated animals vs. those of the Control Item group. Data analysis of all measurable parameters was performed by the use of the following methods in order to determine significance of treatment effects: Software: GraphPad Instat®—Version 3.02 (Statistical Method: 1-Way ANOVA; Dunnett Multiple Comparisons Test for locomotor activity parameters; Kruskal-Wallis Test for Sleeping Time data) Microsoft” Excel 2000.

The conditions of series [9]: in vivo, po; cited from earlier work.

Several values for one entry are separate records, joined by “and”; a condition that tells them apart may be missing. Equal values may be shown once.

As for `Cc1nnc2n1-c1sc(Br)cc1C(c1ccccc1Cl)=NC2` [Brotizolam], in [1], the “Diastolic BP” value is given as 69.0 ± 2.8, the “Systolic BP” value was found to be 116.9 ± 4.8 and the Pulse rate was determined as 69.8 ± 1.8. Besides, in series [2], the iWRT is 7.6 ± 1.3. The same compound yielded a DSST in series [3] of 76.3 ± 7.7. For the same compound, in [4], the Effectiveness came to 2.3 ± 0.3, the Focus ability is listed as 2.4 ± 0.4 and the Vigilance amounted to 2.3 ± 0.4. In [5], this compound displayed a POMS- fatigue of 7.2 ± 1.2 and a POMS-Alertness of 4.3 ± 1.0.
Consider `CN1C(=O)CN=C(c2ccccc2)c2cc(Cl)ccc21` [Diazepam], for which the “additional duration of 'Sleep' after supplement dose” value in [6] (female rat, 20 mg/kg then supplement 5 mg/kg IV) is 1180 s; in series [6] (male rat, 15 mg/kg then supplement 5 mg/kg IV), 850 s. The “mortality after diazepam injection” value was “died immediately following injection and FDC” in series [6] (female rat, single dose 25 mg/kg IV, 25 mg/kg); “death” in series [6] (female rat, single dose 25 mg/kg IV, listed as diazepam, 25 mg/kg); “died immediately following injection and FDC” in [6] (male rat, single dose 20 mg/kg IV, 20 mg/kg); “death” in [6] (male rat, single dose 20 mg/kg IV, listed as diazepam, 20 mg/kg). The “duration of induced 'Sleep'” value in series [6] (female rats, diazepam 20 mg/kg IV, individual animals) is 240 s and 180 s; in series [6] (male rat, diazepam 10 mg/kg IV, single animal), 46 s; in series [6] (male rat, diazepam 15 mg/kg IV, single animal), 130 s; in series [6] (male rat, diazepam 20 mg/kg IV, single animal), 1700 s.
Consider `CCOC(=O)c1ncn2c1CN(C)C(=O)c1cc(F)ccc1-2` [Reference Item], for which, in series [7], the “regaining of Righting Reflex (Sleeping Time)” value was “regained their righting reflex very shortly following injection”. In series [8] (Area 1 peripheries (normal behavior), Area 2 central, FIG. 11), the “area of the cage where rats moved or stayed” value is recorded as “stayed in the central area of the cage”. In addition, the locomotor activity result in series [8] (after regaining righting reflex, males and females) is “very low and similar to that of the control animals”. The “total distance versus Control group” value in [8] (female rats, 15 min session, diazepam 20+5 mg/kg IV) was “No statistical significant difference”. Further, the “mean group time spent in the extent of the activity cage versus controls” value in series [8] (male rats) is listed as “relatively higher”. Also, in series [8] (male rats, 15 min session, diazepam 15+5 mg/kg IV), the “total distance, mean group values versus Control group” value was “only one out of the four males exhibited higher values”.
Consider `Cc1ccc(-c2nc3ccc(C)cn3c2CC(=O)N(C)C)cc1` [Zolpidem], for which, in series [1], the “Diastolic BP” value is reported as 71.4 ± 1.9, the “Systolic BP” value came to 119.5 ± 4.0 and the Pulse rate is listed as 77.5 ± 3.5. Besides, the iWRT in series [2] turned out to be 4.1 ± 0.3. Also, in series [3], the DSST came out at 62.5 ± 3.6. In addition, the oral bioavailability in series [9] was 70%. In [4], this compound returned an Effectiveness of 1.5 ± 0.4, a Focus ability of 1.5 ± 0.4 and a Vigilance of 1.4 ± 0.3. Besides, in [5], the POMS- fatigue turned out to be 9.3 ± 1.4 and the POMS-Alertness is reported as 1.9 ± 1.0.
